Results: PubChem BioAssay AID2060615 (Molecular Pharmacology Branch, DTP, NCI, 2025)

Test system: 496974-208-R-J2-PDC complex spheroids, growth % test/control
Assay: Anticancer human tumor 496974-208-R-J2-PDC patient-derived pancreatic carcinoma cell line growth inhibition [CLK]
Conditions: for IC50: curve of first compound; for viability, T/C: stronger effect = lower value
Source text: A high-throughput screen of multi-cell type tumor spheroids was designed to identify active combinations of […] and targeted small molecules. Complex spheroids include a stromal component modeled by human endothelial cells (HUVEC) and fibroblasts modeled by human mesenchymal stem cells (MSCs). The concentration ranges selected for each drug and investigational agent were based upon clinically achievable concentrations if the clinical Cmax of the agent was known.
Compounds. The drugs and investigational agents: cirtuvivint (SM08502; NSC835563), CC-671 (NSC850746), vemurafenib (NSC761431), tapotoclax (NSC804041), sotorasib (NSC818433), adagrasib (NSC831453), MRTX-1133 (NSC836407), BAY2416964 (NSC825713), copanlisib (NSC816437), inavolisib (NSC800729), abemaciclib (NSC768073), osimertinib (NSC779217), entinostat (NSC756642), eltanexor (KPT-8602, NSC794443), venetoclax (NSC766270), ceralasertib (NSC777638), bortezomib (NSC756655), olaparib (NSC753686), talazoparib (NSC767125), alisertib (NSC759677), peposertib (NSC802822), gemcitabine (NSC613327), 5-fluorouracil (NSC19893), SN-38 (NSC673596), oxaliplatin (NSC266046), paclitaxel (NSC125973), and doxorubicin (NSC123127), were obtained from the National Cancer Institute (NCI) Developmental Therapeutics Program Chemical Repository. The FDA-approved anticancer drug set is available from the Developmental Therapeutics Program at https://dtp.cancer.gov/organization/dscb/obtaining/available plates.htm. […] The stock solutions were prepared in dimethyl sulfoxide (DMSO, Sigma-Aldrich, St. Louis, MO, cat. D2650), except for the platinum complexes which were prepared in saline (Quality Biological, Gaithersburg, MD, cat. 114-055-101), at 800-fold the tested concentration and stored at -70 degrees C prior to their use. All drugs and investigational agents were tested over a range starting from a high concentration at or near the clinical Cmax and decreasing in half-log increments. If the clinical Cmax for an agent had not been determined, the highest concentration tested was 10 microM.
Cell Culture. All cells were maintained in an incubator at 37 degrees C and 5% CO2 with 95% humidity. The PDC lines were cultured according to standard operating procedures established by the NCI PDMR. Briefly, all PDCs were thawed and cultured in Matrigel-coated flasks prepared with a working solution of 1X Ham's F-12 nutrient mix, without supplementation (Invitrogen, Waltham, MA, cat. 11765054), 100 U/mL penicillin-streptomycin (Invitrogen, cat. 15140122), and 2.5% Matrigel (Corning Inc., Corning, NY, cat. 354248) for the first three passages. The 947758-054-R-J2-PDC line was cultured in 6B/Colon 1A media, which includes advanced DMEM/F-12 (Thermo Fisher Scientific, cat. 12634028), 10 mM HEPES (Thermo Fisher Scientific, cat. 15630080), 1X GlutaMAX supplement (Thermo Fisher Scientific, cat. 35050061), 0.1 mg/mL primocin (InvivoGen, cat. ant-pm-2), 10% defined fetal bovine serum, heat inactivated (HyClone Laboratories Inc., cat. SH30070.03HI), 1.25 mM N-Acetyl-L-cysteine (Sigma-Aldrich, cat. A9165), 10 mM nicotinamide (Sigma-Aldrich, cat. N0636), 1X B-27 supplement (Thermo Fisher Scientific, cat. 17504044), 1X N-2 supplement (Thermo Fisher Scientific, cat. 17502048), and 10 microM Y-27632 dihydrochloride (Tocris Bioscience, cat. 1254). The 876862-298-R-J1-PDC was cultured in 6E media, which includes all 6B/Colon 1A media components plus 50% L-WRN conditioned media (ATCC, cat. CRL-3276), 50 ng/mL recombinant human EGF recombinant protein (hEGF; Thermo Fisher Scientific, cat. PHG0311), 10 ng/mL recombinant human fibroblast growth factor 10 (hGFG-10; PeproTech, cat. 100-26), 1 ng/mL recombinant human fibroblast growth factor 2 (hFGF-2; PeproTech, cat. 100-18B), and 1 µM prostaglandin E2 (PGE2; Tocris, cat. 2296). The 227483-062-R1-J1-PDC line was cultured in Panc media, containing all 6E components except hFGF-2, with the addition of 500 nM SB-431542 (Selleckchem, cat. S1067) and 10 nM gastrin (Tocris, cat. 3006). […]

[1] = second compound 0.0316 µM, first compound 0.00316 µM
[2] = second compound 0.0316 µM, first compound 0.01 µM
[3] = second compound 0.0316 µM, first compound 0.0316 µM
[4] = second compound 0.0316 µM, first compound 0.1 µM
[5] = second compound 0.0316 µM, first compound 0.316 µM
[6] = second compound 0.0316 µM, first compound 1 µM
[7] = second compound 0.1 µM, first compound 0.00316 µM
[8] = second compound 0.1 µM, first compound 0.01 µM
[9] = second compound 0.1 µM, first compound 0.0316 µM
[10] = second compound 0.1 µM, first compound 0.1 µM
[11] = second compound 0.1 µM, first compound 0.316 µM
[12] = second compound 0.1 µM, first compound 1 µM
[13] = second compound 0.316 µM, first compound 0.00316 µM
[14] = second compound 0.316 µM, first compound 0.01 µM
[15] = second compound 0.316 µM, first compound 0.0316 µM
[16] = second compound 0.316 µM, first compound 0.1 µM
[17] = second compound 0.316 µM, first compound 0.316 µM
[18] = second compound 0.316 µM, first compound 1 µM
[19] = second compound 1 µM, first compound 0.00316 µM
[20] = second compound 1 µM, first compound 0.01 µM
[21] = second compound 1 µM, first compound 0.0316 µM
[22] = second compound 1 µM, first compound 0.1 µM
[23] = second compound 1 µM, first compound 0.316 µM
[24] = second compound 1 µM, first compound 1 µM
[25] = second compound 3.16 µM, first compound 0.00316 µM
[26] = second compound 3.16 µM, first compound 0.01 µM
[27] = second compound 3.16 µM, first compound 0.0316 µM
[28] = second compound 3.16 µM, first compound 0.1 µM
[29] = second compound 3.16 µM, first compound 0.316 µM
[30] = second compound 3.16 µM, first compound 1 µM
[31] = second compound 10 µM, first compound 0.00316 µM
[32] = second compound 10 µM, first compound 0.01 µM
[33] = second compound 10 µM, first compound 0.0316 µM
[34] = second compound 10 µM, first compound 0.1 µM
[35] = second compound 10 µM, first compound 0.316 µM
[36] = second compound 10 µM, first compound 1 µM
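Also: spheroids exposed to the drugs for 7 days before readout.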
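For viability, T/C in this document: 100% = DMSO vehicle control wells.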

CCN1CCN(Cc2ccc(Nc3ncc(F)c(-c4cc(F)c5nc(C)n(C(C)C)c5c4)n3)nc2)CC1 + CN1CCN(c2cc(C(=O)Nc3cc4cc(-c5cnn(C)c5)ccc4cn3)ccn2)CC1
IC50 (second compound 0.0316 µM): > 1000 nM
IC50 (second compound 0.1 µM): > 1000 nM
IC50 (second compound 0.316 µM): < 3.16 nM
IC50 (second compound 1 µM): < 3.16 nM
IC50 (second compound 3.16 µM): < 3.16 nM
IC50 (second compound 10 µM): < 3.16 nM
viability, T/C [1]: 90.4%
viability, T/C [2]: 87.9%
viability, T/C [3]: 78.6%
viability, T/C [4]: 81%
viability, T/C [5]: 76.2%
viability, T/C [6]: 87.7%
viability, T/C [7]: 79.5%
viability, T/C [8]: 73%
viability, T/C [9]: 72.8%
viability, T/C [10]: 72.9%
viability, T/C [11]: 68.2%
viability, T/C [12]: 70.6%
viability, T/C [13]: 6.01%
viability, T/C [14]: 10.2%
viability, T/C [15]: 8.8%
viability, T/C [16]: 11.3%
viability, T/C [17]: 13.7%
viability, T/C [18]: 9.83%
viability, T/C [19]: 0.34%
viability, T/C [20]: 0.41%
viability, T/C [21]: 0.41%
viability, T/C [22]: 0.39%
viability, T/C [23]: 0.77%
viability, T/C [24]: 2.79%
viability, T/C [25]: 0.34%
viability, T/C [26]: 1.89%
viability, T/C [27]: 1.33%
viability, T/C [28]: 0.51%
viability, T/C [29]: 1.22%
viability, T/C [30]: 4.6%
viability, T/C [31]: 0.22%
viability, T/C [32]: 0.34%
viability, T/C [33]: 0.36%
viability, T/C [34]: 0.29%
viability, T/C [35]: 1.36%
viability, T/C [36]: 2.46%

COc1c(OCCCN2CCOCC2)ccc2c3n(c(=NC(=O)c4cnc(N)nc4)nc12)CCN3 + CN1CCN(c2cc(C(=O)Nc3cc4cc(-c5cnn(C)c5)ccc4cn3)ccn2)CC1
IC50 (second compound 0.0316 µM): 15.8 nM
IC50 (second compound 0.1 µM): 13.3 nM
IC50 (second compound 0.316 µM): < 3.16 nM
IC50 (second compound 1 µM): < 3.16 nM
IC50 (second compound 3.16 µM): < 3.16 nM
IC50 (second compound 10 µM): < 3.16 nM
viability, T/C [1]: 84.8%
viability, T/C [2]: 61.2%
viability, T/C [3]: 33.2%
viability, T/C [4]: 14.5%
viability, T/C [5]: 7%
viability, T/C [6]: 4.1%
viability, T/C [7]: 65.5%
viability, T/C [8]: 58.2%
viability, T/C [9]: 27.1%
viability, T/C [10]: 11.5%
viability, T/C [11]: 8.48%
viability, T/C [12]: 3.16%
viability, T/C [13]: 5.23%
viability, T/C [14]: 3.99%
viability, T/C [15]: 2.13%
viability, T/C [16]: 1.22%
viability, T/C [17]: 0.53%
viability, T/C [18]: 0.56%
viability, T/C [19]: 0.41%
viability, T/C [20]: 0.62%
viability, T/C [21]: 1.84%
viability, T/C [22]: 0.29%
viability, T/C [23]: 0.49%
viability, T/C [24]: 1.95%
viability, T/C [25]: 0.35%
viability, T/C [26]: 1.42%
viability, T/C [27]: 0.35%
viability, T/C [28]: 0.45%
viability, T/C [29]: 1.33%
viability, T/C [30]: 0.46%
viability, T/C [31]: 0.26%
viability, T/C [32]: 0.83%
viability, T/C [33]: 0.25%
viability, T/C [34]: 0.19%
viability, T/C [35]: 0.4%
viability, T/C [36]: 1.34%
